Test results reported in the supplement of paper PMC10307832.

Assays:
Assay in all cases: relative viability (nuclei count vs DMSO), 5 days (fraction); higher = more cells survive
[1] = tested on: LCLC-103H
Summary of the method: (§1)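 Cells from lung cancer lines were seeded into 1536-well plates and, one day later, dosed by pin tool. Treatments were either a single drug or a fixed dose of an anchor drug with five library-drug doses (not always all listed) in √10 steps. After 5 days, nuclei were stained in a one-step fixation (final 0.05% Triton X-100, 1% formaldehyde, 1 ug/ml Hoechst) and counted on 4× images, and relative viability is the treated-to-vehicle nuclei ratio, as the median of duplicate plates.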

[2] = tested on: NCI-H1666
Summary of the method: as §1

[3] = tested on: SK-LU-1
Summary of the method: as §1

[4] = tested on: NCI-H2085
Summary of the method: as §1

[5] = tested on: NCI-H3122
Summary of the method: as §1

[6] = tested on: HCC-366
Summary of the method: as §1

[7] = tested on: EMC-BAC-2
Summary of the method: as §1

[8] = tested on: LXF-289
Summary of the method: as §1

[9] = tested on: HCC-44
Summary of the method: as §1

[10] = tested on: HCC-827
Summary of the method: as §1

[11] = tested on: NCI-H1975
Summary of the method: as §1

[12] = tested on: ChaGo-K-1
Summary of the method: as §1

In the case of COc1cc(N2CCC(C(N)=O)CC2)ccc1Nc1nc(N)c(Cl)c(Nc2ccccc2S(=O)(=O)C(C)C)n1 [HG-5-88-01] + CC(=O)c1c(C)c2cnc(Nc3ccc(N4CCNCC4)cn3)nc2n(C2CCCC2)c1=O [Palbociclib] (partner 0.5 µM), the relative viability ([1]; first compound 1.265 µM) is reported as 0.504, the relative viability ([1]; first compound 4 µM) is reported as 0.445 and the relative viability ([2]; first compound 0.04 µM) is reported as 0.636. For the same compound, the relative viability ([2]; first compound 0.1265 µM) was 0.663, the relative viability ([2]; first compound 0.4 µM) was 0.623 and the relative viability ([2]; first compound 1.265 µM) was 0.661. It also gave a relative viability ([2]; first compound 4 µM) of 0.623, a relative viability ([3]; first compound 0.04 µM) of 0.363 and a relative viability ([3]; first compound 0.1265 µM) of 0.422. For the same compound, the relative viability ([3]; first compound 0.4 µM) was 0.505, the relative viability ([3]; first compound 1.265 µM) was 0.329 and the relative viability ([3]; first compound 4 µM) was 0.332. For the same compound, the relative viability ([4]; first compound 0.04 µM) was 0.474, the relative viability ([4]; first compound 0.1265 µM) was 0.485 and the relative viability ([4]; first compound 0.4 µM) was 0.458. It also gave a relative viability ([4]; first compound 1.265 µM) of 0.465, a relative viability ([4]; first compound 4 µM) of 0.552 and a relative viability ([5]; first compound 0.04 µM) of 0.161. It also gave a relative viability ([5]; first compound 0.1265 µM) of 0.138, a relative viability ([5]; first compound 0.4 µM) of 0.11 and a relative viability ([5]; first compound 1.265 µM) of 0.111. For the same compound, the relative viability ([5]; first compound 4 µM) was 0.0988, the relative viability ([6]; first compound 0.04 µM) was 0.397 and the relative viability ([6]; first compound 0.1265 µM) was 0.41. It also gave a relative viability ([6]; first compound 0.4 µM) of 0.356, a relative viability ([6]; first compound 1.265 µM) of 0.41 and a relative viability ([6]; first compound 4 µM) of 0.465. It also gave a relative viability ([7]; first compound 0.04 µM) of 0.516, a relative viability ([7]; first compound 0.1265 µM) of 0.543 and a relative viability ([7]; first compound 0.4 µM) of 0.48. It also gave a relative viability ([7]; first compound 1.265 µM) of 0.405, a relative viability ([7]; first compound 4 µM) of 0.438 and a relative viability ([8]; first compound 0.04 µM) of 0.583. For the same compound, the relative viability ([8]; first compound 0.1265 µM) was 0.628, the relative viability ([8]; first compound 0.4 µM) was 0.572 and the relative viability ([8]; first compound 1.265 µM) was 0.59. It also gave a relative viability ([8]; first compound 4 µM) of 0.636, a relative viability ([9]; first compound 0.04 µM) of 0.983 and a relative viability ([9]; first compound 0.1265 µM) of 0.957. The relative viability ([9]; first compound 0.4 µM) was 0.864, the relative viability ([9]; first compound 1.265 µM) was 0.954 and the relative viability ([9]; first compound 4 µM) was 0.943. The relative viability ([10]; first compound 0.04 µM) was 0.583, the relative viability ([10]; first compound 0.1265 µM) was 0.459 and the relative viability ([10]; first compound 0.4 µM) was 0.425. The relative viability ([10]; first compound 1.265 µM) was 0.197, the relative viability ([10]; first compound 4 µM) was 0.33 and the relative viability ([11]; first compound 0.04 µM) was 0.597. The relative viability ([11]; first compound 0.1265 µM) was 0.643, the relative viability ([11]; first compound 0.4 µM) was 0.464 and the relative viability ([11]; first compound 1.265 µM) was 0.538. For the same compound, the relative viability ([11]; first compound 4 µM) was 0.425, the relative viability ([12]; first compound 0.04 µM) was 0.931 and the relative viability ([12]; first compound 0.1265 µM) was 0.813. It also gave a relative viability ([12]; first compound 0.4 µM) of 0.881, a relative viability ([12]; first compound 1.265 µM) of 0.959 and a relative viability ([12]; first compound 4 µM) of 0.881.
